Assay [1] has as its target Alanine--tRNA ligase (Escherichia coli) (UniProt P00957). Kind of assay: Compound tested for the inhibition of Escherichia coli Alanine-tRNA synthetase.
Assay [2] addresses Isoleucine--tRNA ligase (Escherichia coli) (UniProt P00956). The assay is described as follows: Inhibition of Escherichia coli isoleucyl-tRNA synthetase.
In assay [3] the target is Leucine--tRNA ligase (Escherichia coli) (UniProt P07813). Kind of assay: Compound tested for the inhibition of Escherichia coli Leucyl-tRNA synthetase.
Leucine--tRNA ligase (Escherichia coli), sequence (P07813 whole entry, looked up): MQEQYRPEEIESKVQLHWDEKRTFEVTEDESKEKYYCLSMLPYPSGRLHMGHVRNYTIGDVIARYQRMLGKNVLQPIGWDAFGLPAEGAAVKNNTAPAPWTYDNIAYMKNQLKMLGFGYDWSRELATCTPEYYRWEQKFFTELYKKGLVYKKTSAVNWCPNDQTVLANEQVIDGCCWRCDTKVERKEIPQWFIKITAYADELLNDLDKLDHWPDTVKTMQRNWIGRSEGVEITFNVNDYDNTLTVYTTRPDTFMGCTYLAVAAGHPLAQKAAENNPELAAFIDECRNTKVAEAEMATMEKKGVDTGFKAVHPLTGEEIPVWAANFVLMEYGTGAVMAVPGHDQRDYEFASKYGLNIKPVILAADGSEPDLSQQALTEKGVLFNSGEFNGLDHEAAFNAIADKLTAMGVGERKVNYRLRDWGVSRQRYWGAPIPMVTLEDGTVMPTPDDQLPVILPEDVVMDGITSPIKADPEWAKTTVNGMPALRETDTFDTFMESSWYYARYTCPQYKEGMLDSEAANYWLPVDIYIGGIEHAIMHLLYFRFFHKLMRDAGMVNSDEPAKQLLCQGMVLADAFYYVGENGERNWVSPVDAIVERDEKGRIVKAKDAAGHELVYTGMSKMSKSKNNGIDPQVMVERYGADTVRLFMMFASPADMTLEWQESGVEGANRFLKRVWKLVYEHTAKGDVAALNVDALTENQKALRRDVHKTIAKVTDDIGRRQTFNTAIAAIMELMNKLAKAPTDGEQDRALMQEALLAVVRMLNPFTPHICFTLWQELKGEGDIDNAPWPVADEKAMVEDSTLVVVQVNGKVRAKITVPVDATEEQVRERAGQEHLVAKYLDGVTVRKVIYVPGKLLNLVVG

Isoleucine--tRNA ligase (Escherichia coli), sequence (P00956 whole entry, looked up): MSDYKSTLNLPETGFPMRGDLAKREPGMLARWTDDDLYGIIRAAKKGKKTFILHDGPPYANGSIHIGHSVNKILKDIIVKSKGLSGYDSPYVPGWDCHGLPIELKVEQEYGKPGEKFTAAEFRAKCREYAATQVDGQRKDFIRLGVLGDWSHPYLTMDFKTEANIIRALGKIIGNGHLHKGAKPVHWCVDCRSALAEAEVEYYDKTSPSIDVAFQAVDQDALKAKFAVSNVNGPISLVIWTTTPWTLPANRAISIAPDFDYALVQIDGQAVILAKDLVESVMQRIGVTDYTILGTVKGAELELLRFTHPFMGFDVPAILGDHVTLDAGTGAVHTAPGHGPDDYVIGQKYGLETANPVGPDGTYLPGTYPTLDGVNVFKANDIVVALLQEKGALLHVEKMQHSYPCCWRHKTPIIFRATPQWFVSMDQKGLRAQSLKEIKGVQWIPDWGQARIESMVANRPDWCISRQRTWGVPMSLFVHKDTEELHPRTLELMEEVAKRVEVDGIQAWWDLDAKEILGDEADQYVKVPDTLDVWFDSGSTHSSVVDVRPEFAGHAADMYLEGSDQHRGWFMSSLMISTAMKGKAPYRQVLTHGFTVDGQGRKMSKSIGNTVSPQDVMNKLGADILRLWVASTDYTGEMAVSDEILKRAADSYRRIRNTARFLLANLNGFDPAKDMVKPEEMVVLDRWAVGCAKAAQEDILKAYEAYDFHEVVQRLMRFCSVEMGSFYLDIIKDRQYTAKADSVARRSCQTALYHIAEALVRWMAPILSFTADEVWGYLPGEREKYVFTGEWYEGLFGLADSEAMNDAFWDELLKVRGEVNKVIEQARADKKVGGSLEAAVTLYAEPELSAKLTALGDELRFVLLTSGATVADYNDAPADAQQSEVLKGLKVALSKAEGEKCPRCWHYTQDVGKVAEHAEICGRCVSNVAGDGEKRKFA
Alanine--tRNA ligase (Escherichia coli), sequence (P00957 whole entry, looked up): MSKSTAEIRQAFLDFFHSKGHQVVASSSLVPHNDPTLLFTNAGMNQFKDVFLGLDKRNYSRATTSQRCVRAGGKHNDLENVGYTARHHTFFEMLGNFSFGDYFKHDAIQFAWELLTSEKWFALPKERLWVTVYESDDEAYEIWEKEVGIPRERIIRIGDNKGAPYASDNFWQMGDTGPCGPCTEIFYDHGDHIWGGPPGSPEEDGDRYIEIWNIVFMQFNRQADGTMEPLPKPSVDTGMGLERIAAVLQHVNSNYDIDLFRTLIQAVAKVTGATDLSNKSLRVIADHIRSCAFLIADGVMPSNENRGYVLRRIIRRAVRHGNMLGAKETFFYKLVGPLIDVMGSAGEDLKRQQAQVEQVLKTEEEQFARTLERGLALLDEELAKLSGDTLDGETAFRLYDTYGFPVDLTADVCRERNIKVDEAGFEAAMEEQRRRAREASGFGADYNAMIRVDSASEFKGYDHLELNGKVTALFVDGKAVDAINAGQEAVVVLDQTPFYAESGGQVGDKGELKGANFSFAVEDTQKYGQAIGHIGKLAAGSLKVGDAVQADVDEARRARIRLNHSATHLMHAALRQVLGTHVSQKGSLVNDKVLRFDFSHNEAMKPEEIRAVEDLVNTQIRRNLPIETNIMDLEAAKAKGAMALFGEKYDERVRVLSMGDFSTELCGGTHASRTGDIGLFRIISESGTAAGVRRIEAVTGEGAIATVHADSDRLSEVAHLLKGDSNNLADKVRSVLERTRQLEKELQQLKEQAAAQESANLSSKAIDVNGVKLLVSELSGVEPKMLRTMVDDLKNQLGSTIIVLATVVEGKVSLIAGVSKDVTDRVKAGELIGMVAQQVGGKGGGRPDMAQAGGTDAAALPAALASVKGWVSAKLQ

As to `CC[C@H](C)[C@H](N)C(=O)NS(=O)(=O)OC[C@H]1O[C@@H](c2nc(-c3ccccc3)cs2)[C@H](O)[C@@H]1O` [((2S,3S)-2-Amino-3-methyl-pentanoyl)-sulfamic acid (2R,3S,4R,5R)-3,4-dihydroxy-5-(4-phenyl-thiazol-2-yl)-tetrahydro-furan-2-ylmethyl ester], the IC50 was > 100000 nM in assay [1] and 100 nM in assay [2].

With `CC(C)[C@H](N)C(=O)NS(=O)(=O)OC[C@H]1O[C@@H](c2nc(-c3ccccc3)cs2)[C@H](O)[C@@H]1O` [((S)-2-Amino-3-methyl-butyryl)-sulfamic acid (2R,3S,4R,5R)-3,4-dihydroxy-5-(4-phenyl-thiazol-2-yl)-tetrahydro-furan-2-ylmethyl ester], the IC50 in assay [1] is > 100000 nM; in assay [2], 15000 nM; in assay [3], 14000 nM.

As to `CCC(C)[C@H](N)C(=O)NS(=O)(=O)OC[C@H]1O[C@@H](c2nc(CCc3ccccc3)cs2)[C@H](O)[C@@H]1O` (stereo partly drawn) [((S)-2-Amino-3-methyl-pentanoyl)-sulfamic acid (2R,3S,4R,5R)-3,4-dihydroxy-5-(4-phenethyl-thiazol-2-yl)-tetrahydro-furan-2-ylmethyl ester], 30 nM corresponded to half-maximal inhibition in assay [2] (IC50).

In assay [2], `CCC(C)[C@H](N)C(=O)NS(=O)(=O)OC[C@H]1O[C@@H](c2nc(-c3ccccc3OC)cs2)[C@H](O)[C@@H]1O` (stereo partly drawn) [((S)-2-Amino-3-methyl-pentanoyl)-sulfamic acid (2R,3S,4R,5R)-3,4-dihydroxy-5-[4-(2-methoxy-phenyl)-thiazol-2-yl]-tetrahydro-furan-2-ylmethyl ester] gave an IC50 of 30 nM.

Molecule `CCC(C)[C@H](N)C(=O)NS(=O)(=O)OC[C@H]1O[C@@H](c2nc(-c3cccc(OC)c3)cs2)[C@H](O)[C@@H]1O` (stereo partly drawn) [((S)-2-Amino-3-methyl-pentanoyl)-sulfamic acid (2R,3S,4R,5R)-3,4-dihydroxy-5-[4-(3-methoxy-phenyl)-thiazol-2-yl]-tetrahydro-furan-2-ylmethyl ester] returned an IC50 in assay [2] of 15 nM.

`CCC(C)[C@H](N)C(=O)NS(=O)(=O)OC[C@H]1O[C@@H](c2nc(-c3ccc(OC)cc3)cs2)[C@H](O)[C@@H]1O` (stereo partly drawn) [((S)-2-Amino-3-methyl-pentanoyl)-sulfamic acid (2R,3S,4R,5R)-3,4-dihydroxy-5-[4-(4-methoxy-phenyl)-thiazol-2-yl]-tetrahydro-furan-2-ylmethyl ester] yielded an IC50 in assay [2] of 100 nM.

In assay [2], `CCC(C)[C@H](N)C(=O)NS(=O)(=O)OC[C@H]1O[C@@H](c2nc(-c3ccc(Oc4ccccc4)cc3)cs2)[C@H](O)[C@@H]1O` (stereo partly drawn) [((S)-2-Amino-3-methyl-pentanoyl)-sulfamic acid (2R,3S,4R,5R)-3,4-dihydroxy-5-[4-(4-phenoxy-phenyl)-thiazol-2-yl]-tetrahydro-furan-2-ylmethyl ester] yielded an IC50 of 45 nM.

Turning to `CCC(C)[C@H](N)C(=O)NS(=O)(=O)OC[C@H]1O[C@@H](c2nc(-c3ccc4cc(OC)ccc4c3)cs2)[C@H](O)[C@@H]1O` (stereo partly drawn) [((S)-2-Amino-3-methyl-pentanoyl)-sulfamic acid (2R,3S,4R,5R)-3,4-dihydroxy-5-[4-(6-methoxy-naphthalen-2-yl)-thiazol-2-yl]-tetrahydro-furan-2-ylmethyl ester], 20 nM corresponded to half-maximal inhibition in assay [2] (IC50).

Take `CCC(C)[C@H](N)C(=O)NS(=O)(=O)OC[C@H]1O[C@@H](c2nc(CCc3ccc(Oc4ccccc4)cc3)cs2)[C@H](O)[C@@H]1O` (stereo partly drawn) [((S)-2-Amino-3-methyl-pentanoyl)-sulfamic acid (2R,3S,4R,5R)-3,4-dihydroxy-5-{4-[2-(4-phenoxy-phenyl)-ethyl]-thiazol-2-yl}-tetrahydro-furan-2-ylmethyl ester]: the IC50 in assay [2] was determined as 110 nM.

Consider `N[C@@H](Cc1ccccc1)C(=O)NS(=O)(=O)OC[C@H]1O[C@@H](c2nc(-c3ccccc3)cs2)[C@H](O)[C@@H]1O` [((S)-2-Amino-3-phenyl-propionyl)-sulfamic acid (2R,3S,4R,5R)-3,4-dihydroxy-5-(4-phenyl-thiazol-2-yl)-tetrahydro-furan-2-ylmethyl ester], for which the IC50 in assay [1], in assay [2] and in assay [3] was > 100000 nM in each case.

As to `CC(C)C[C@H](N)C(=O)NS(=O)(=O)OC[C@H]1O[C@@H](c2nc(CCc3ccccc3)cs2)[C@H](O)[C@@H]1O` [((S)-2-Amino-4-methyl-pentanoyl)-sulfamic acid (2R,3S,4R,5R)-3,4-dihydroxy-5-(4-phenethyl-thiazol-2-yl)-tetrahydro-furan-2-ylmethyl ester], in assay [3], the 50% inhibitory concentration (IC50) is < 2 nM.

`CC(C)C[C@H](N)C(=O)NS(=O)(=O)OC[C@H]1O[C@@H](c2nc(-c3ccc(Oc4ccccc4)cc3)cs2)[C@H](O)[C@@H]1O` [((S)-2-Amino-4-methyl-pentanoyl)-sulfamic acid (2R,3S,4R,5R)-3,4-dihydroxy-5-[4-(4-phenoxy-phenyl)-thiazol-2-yl]-tetrahydro-furan-2-ylmethyl ester] returned an IC50 in assay [3] of 1.6 nM.

In turn, `CC(C)C[C@H](N)C(=O)NS(=O)(=O)OC[C@H]1O[C@@H](c2nc(CCc3ccc(Oc4ccccc4)cc3)cs2)[C@H](O)[C@@H]1O` [((S)-2-Amino-4-methyl-pentanoyl)-sulfamic acid (2R,3S,4R,5R)-3,4-dihydroxy-5-{4-[2-(4-phenoxy-phenyl)-ethyl]-thiazol-2-yl}-tetrahydro-furan-2-ylmethyl ester] came in with an IC50 in assay [3] of 6 nM.

Consider `C[C@H](N)C(=O)NS(=O)(=O)OC[C@H]1O[C@@H](c2nc(-c3ccccc3)cs2)[C@H](O)[C@@H]1O` [((S)-2-Amino-propionyl)-sulfamic acid (2R,3S,4R,5R)-3,4-dihydroxy-5-(4-phenyl-thiazol-2-yl)-tetrahydro-furan-2-ylmethyl ester], for which the figures for the IC50 in assay [1], in assay [2] and in assay [3] were > 100000 nM, 100000 nM and > 100000 nM, respectively.

Consider `N[C@@H](Cc1cnc[nH]1)C(=O)NS(=O)(=O)OC[C@H]1O[C@@H](c2nc(-c3ccccc3)cs2)[C@H](O)[C@@H]1O` [[(S)-2-Amino-3-(3H-imidazol-4-yl)-propionyl]-sulfamic acid (2R,3S,4R,5R)-3,4-dihydroxy-5-(4-phenyl-thiazol-2-yl)-tetrahydro-furan-2-ylmethyl ester], for which the IC50 in assay [1], in assay [2] and in assay [3] was > 100000 nM in each case.

(Values after BindingDB's records for doi:10.1016/s0960-894x(98)00738-0 (Cubist Pharmaceuticals, 1999).)
